Measured values: ChEMBL document CHEMBL6127102 (Bioorg Med Chem, 2024)
The source made the active and inactive calls. No cut-off for these calls is given here.

Key:
MDA-MB-231 [1] = test: Induction of apoptosis in human MDA-MB-231 cells as increase in red fluorescence at 5 uM incubated for 24 hrs by Calcein AM/PI staining based confocal microscopy; type: functional, cell-based
[2] = Toxicity in BALB/c nude mouse xenografted with human MDA-MB-231 cells assessed as damage in kidney at 38 mg/kg, ip administered on every 2 days for 28 days by H and E staining based analysis; type: organism-based; conditions: in vivo, 672 h, time 28 day
MDA-MB-231 [3] = test: Induction of apoptosis in human MDA-MB-231 cells assessed as increase in cleaved caspase-3 level at 5 uM incubated for 24 hrs by Western blot analysis; type: functional, cell-based
[4] = Cytotoxicity against human MCF-10A cells incubated for 72 hrs by MTT assay; type: toxicity, cell-based
MDA-MB-231 [5] = test: Induction of depolarization of mitochondrial membrane potential in human MDA-MB-231 cells at 5 uM incubated for 24 hrs by JC-1 staining based flow cytometry relative to control; type: functional
MDA-MB-231 [6] = test: Induction of DNA damage in human MDA-MB-231 cells assessed as increase in olive tail moments at 5 uM incubated for 24 hrs by Comet assay; type: functional, cell-based
MDA-MB-231 [7] = test: Effect on ERK1/2 phosphorylation in human MDA-MB-231 cells at 5 uM incubated for 24 hrs by Western blot analysis; type: functional, cell-based
[8] = Toxicity in BALB/c nude mouse xenografted with human MDA-MB-231 cells assessed as damage in lung at 38 mg/kg, ip administered on every 2 days for 28 days by H and E staining based analysis; type: organism-based; conditions: in vivo, 672 h, time 28 day
MDA-MB-231 [9] = test: Induction of apoptosis in human MDA-MB-231 cells assessed as decrease in Bcl-2 level at 5 uM incubated for 24 hrs by Western blot analysis; type: functional, cell-based
MDA-MB-436 = test: Antitumor activity against BRCA 1-deficient human MDA-MB-436 cells incubated for 72 hrs by MTT assay; type: functional, cell-based; conditions: MDA-MB-436, 72 h
MDA-MB-231 [10] = test: Antitumor activity against human MDA-MB-231 cells xenografted in BALB/c nude mouse assessed as increase in necrotic cells at 38 mg/kg, ip administered on every 2 days for 28 days by H and E staining based analysis; type: functional, organism-based; conditions: time 28.0 day
MDA-MB-231 [11] = test: Induction of apoptosis in human MDA-MB-231 cells assessed as increase in Bax level at 5 uM incubated for 24 hrs by Western blot analysis; type: functional, cell-based
MDA-MB-231 [12] = test: Induction of apoptosis in human MDA-MB-231 cells assessed as increase in cleaved PARP level at 5 uM incubated for 24 hrs by Western blot analysis; type: functional, cell-based
MDA-MB-231 [13] = test: Induction of apoptosis in human MDA-MB-231 cells assessed as increase in cleaved caspase-9 level at 5 uM incubated for 24 hrs by Western blot analysis; type: functional, cell-based
MDA-MB-231 [14] = test: […] activity in human MDA-MB-231 cells at 1 uM incubated for 24 hrs by wound healing assay; type: functional, cell-based
HCC1937 = test: Antitumor activity against BRCA 1-deficient human HCC1937 cells incubated for 72 hrs by MTT assay; type: functional, cell-based; conditions: HCC1937, 72 h
MDA-MB-231 [15] = test: Anti-migration activity in human MDA-MB-231 cells assessed as wound closure area at 1 uM incubated for 24 hrs by wound healing assay (reference value: 75.6 %); type: functional
[16] = Toxicity in BALB/c nude mouse xenografted with human MDA-MB-231 cells assessed as body weight change at 38 mg/kg, ip administered on every 2 days for 28 days; type: organism-based; conditions: in vivo, 672 h, time 28 day
MDA-MB-231 [17] = test: Effect on RAF expression in human MDA-MB-231 cells at 5 uM incubated for 24 hrs by Western blot analysis; type: functional, cell-based
MDA-MB-231 [18] = test: Effect on total ERK1/2 in human MDA-MB-231 cells at 5 uM incubated for 24 hrs by Western blot analysis; type: functional, cell-based
MDA-MB-231 [19] = test: Antitumor activity against human MDA-MB-231 cells xenografted in BALB/c nude mouse assessed as decrease in Ki-67 expression at 38 mg/kg, ip administered on every 2 days for 28 days by H and E staining based analysis; type: functional, organism-based; conditions: time 28.0 day
MDA-MB-231 [20] = test: Induction of ROS generation in human MDA-MB-231 cells at 5 uM incubated for 24 hrs by DCFH-DA staining based flow cytometric analysis; type: functional, cell-based
MDA-MB-231 [21] = test: Effect on CRAF expression in human MDA-MB-231 cells at 5 uM incubated for 24 hrs by Western blot analysis; type: functional, cell-based
[22] = Toxicity in BALB/c nude mouse xenografted with human MDA-MB-231 cells assessed as damage in heart at 38 mg/kg, ip administered on every 2 days for 28 days by H and E staining based analysis; type: organism-based; conditions: in vivo, 672 h, time 28 day
MDA-MB-231 [23] = test: Antitumor activity against human MDA-MB-231 cells xenografted in BALB/c nude mouse assessed as increase in apoptotic cells at 38 mg/kg, ip administered on every 2 days for 28 days by H and E staining based analysis; type: functional, organism-based; conditions: time 28.0 day
MDA-MB-231 [24] = test: Induction of DNA damage in human MDA-MB-231 cells assessed as increase in gamma-H2AX level at 5 uM incubated for 24 hrs by immunofluorescence based analysis; type: functional, cell-based
MDA-MB-231 [25] = test: Antitumor activity against human MDA-MB-231 cells xenografted in BALB/c nude mouse at 38 mg/kg, ip administered on every 2 days for 28 days relative to control; type: functional; conditions: MDA-MB-231, 672 h, time 28 day, read-out: TGI
[26] = target: Poly [ADP-ribose] polymerase 1 (Homo sapiens, UniProt P09874); test: Inhibition of PARP1 (unknown origin) using histone as substrate incubated for 60 mins by ELISA
MDA-MB-231 [27] = test: Antitumor activity against human MDA-MB-231 cells harboring wild-type BRCA incubated for 72 hrs by MTT assay; type: functional, cell-based; conditions: MDA-MB-231, 72 h
[28] = Toxicity in BALB/c nude mouse xenografted with human MDA-MB-231 cells assessed as damage in spleen at 38 mg/kg, ip administered on every 2 days for 28 days by H and E staining based analysis; type: organism-based; conditions: in vivo, 672 h, time 28 day
[29] = Toxicity in BALB/c nude mouse xenografted with human MDA-MB-231 cells assessed as damage in liver at 38 mg/kg, ip administered on every 2 days for 28 days by H and E staining based analysis; type: organism-based; conditions: in vivo, 672 h, time 28 day
[30] = Toxicity in BALB/c nude mouse xenografted with human MDA-MB-231 cells assessed as drug tolerance at 38 mg/kg, ip administered on every 2 days for 28 days; type: organism-based; conditions: in vivo, 672 h, time 28 day
MDA-MB-468 = test: Antitumor activity against human MDA-MB-468 cells harboring wild-type BRCA incubated for 72 hrs by MTT assay; type: functional, cell-based; conditions: MDA-MB-468, 72 h
MDA-MB-231 [31] = test: Effect on total MEK in human MDA-MB-231 cells at 5 uM incubated for 24 hrs by Western blot analysis; type: functional, cell-based
MDA-MB-231 [32] = test: Induction of apoptosis in human MDA-MB-231 cells at 5 uM incubated for 24 hrs by Annexin V-FITC/PI staining based flow cytometry relative to control; type: functional
MDA-MB-231 [33] = test: Effect on MEK phosphorylation in human MDA-MB-231 cells at 5 uM incubated for 24 hrs by Western blot analysis; type: functional, cell-based

Chain of Poly [ADP-ribose] polymerase 1 (P09874 whole entry): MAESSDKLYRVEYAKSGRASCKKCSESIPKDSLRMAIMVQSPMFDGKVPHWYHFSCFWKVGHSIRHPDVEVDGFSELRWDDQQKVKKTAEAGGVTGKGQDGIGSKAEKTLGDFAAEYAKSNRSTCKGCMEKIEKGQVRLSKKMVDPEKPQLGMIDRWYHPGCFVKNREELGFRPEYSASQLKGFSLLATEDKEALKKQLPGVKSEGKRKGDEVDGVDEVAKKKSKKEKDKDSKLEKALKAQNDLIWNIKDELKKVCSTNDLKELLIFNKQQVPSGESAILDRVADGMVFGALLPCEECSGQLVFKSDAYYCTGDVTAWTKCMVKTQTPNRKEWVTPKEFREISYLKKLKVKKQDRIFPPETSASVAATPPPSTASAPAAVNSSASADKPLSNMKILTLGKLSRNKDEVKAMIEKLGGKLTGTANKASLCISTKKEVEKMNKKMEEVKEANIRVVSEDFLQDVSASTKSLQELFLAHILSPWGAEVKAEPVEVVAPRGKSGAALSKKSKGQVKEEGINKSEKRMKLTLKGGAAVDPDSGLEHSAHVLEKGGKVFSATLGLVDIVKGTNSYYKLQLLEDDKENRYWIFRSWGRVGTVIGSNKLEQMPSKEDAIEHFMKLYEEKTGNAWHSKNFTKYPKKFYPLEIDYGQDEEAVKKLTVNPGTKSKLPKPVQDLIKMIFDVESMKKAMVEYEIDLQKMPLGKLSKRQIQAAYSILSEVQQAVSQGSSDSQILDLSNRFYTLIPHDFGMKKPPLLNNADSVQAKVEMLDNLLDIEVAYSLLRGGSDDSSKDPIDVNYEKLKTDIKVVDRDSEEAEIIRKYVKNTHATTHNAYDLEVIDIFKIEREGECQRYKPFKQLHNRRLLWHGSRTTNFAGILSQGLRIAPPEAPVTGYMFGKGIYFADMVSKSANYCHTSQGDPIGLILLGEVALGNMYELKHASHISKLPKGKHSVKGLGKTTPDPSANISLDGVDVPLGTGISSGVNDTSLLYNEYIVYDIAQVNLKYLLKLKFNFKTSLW

With COc1cc(OC)c(/C=C/S(=O)(=O)Cc2ccc(OC)c(NCCCC(=O)N3CCN(C(=O)c4cc(Cc5n[nH]c(=O)c6ccccc56)ccc4F)CC3)c2)c(OC)c1 the Activity (MDA-MB-231 [1]) was “Active”, the Activity [2] was “Non-Toxic” and the Activity (MDA-MB-231 [3]) was “Active”. For the same compound, the IC50 at 72 h [4] was greater than 40000 nM, the Activity (MDA-MB-231 [5]) was “Active” and the Activity (MDA-MB-231 [6]) was “Active”. For the same compound, the Activity (MDA-MB-231 [7]) was “Active”, the Activity [8] was “Non-Toxic” and the Activity (MDA-MB-231 [9]) was “Active”. The IC50 (MDA-MB-436) was 970 nM, the Activity (MDA-MB-231 [10]) was “Active” and the Activity (MDA-MB-231 [11]) was “Active”. The Activity (MDA-MB-231 [12]) was “Active”, the Activity (MDA-MB-231 [13]) was “Active” and the Activity (MDA-MB-231 [14]) was “Active”. For the same compound, the IC50 (HCC1937) was 1170 nM, the Activity (MDA-MB-231 [15]) was 17.3% and the Activity [16] was “Non-Toxic”. The Activity (MDA-MB-231 [17]) was “Active”, the Activity (MDA-MB-231 [18]) was “inactive” and the Activity (MDA-MB-231 [19]) was “Active”. For the same compound, the Activity (MDA-MB-231 [20]) was “Active”, the Activity (MDA-MB-231 [21]) was “Active” and the Activity [22] was “Non-Toxic”. For the same compound, the Activity (MDA-MB-231 [23]) was “Active”, the Activity (MDA-MB-231 [24]) was “Active” and the inhibition in vivo at 38 mg/kg (MDA-MB-231 [25]) was 61.3%. For the same compound, the IC50 [26] was 112 nM, the IC50 (MDA-MB-231 [27]) was 750 nM and the Activity [28] was “Non-Toxic”. The Activity [29] was “Non-Toxic”, the Activity [30] was “Non-Toxic” and the IC50 (MDA-MB-468) was 1240 nM. For the same compound, the Activity (MDA-MB-231 [31]) was “inactive”, the Activity (MDA-MB-231 [32]) was 48.26% and the Activity (MDA-MB-231 [33]) was “Active”.
